This is an account of results in patent US20170101431A1, “NUCLEOSIDE DERIVATIVES FOR THE TREATMENT OF CANCER” (IDENIX PHARMACEUTICALS LLC, priority 2014, published 2017).

pIC50: −log10 of the molar value. Bounds are passed on as bounds.

Holding throughout (format): cell-based
The test system of assay [1] is CCRF-CEM. The assay can be described thus: In vitro inhibition, CellTiter-Glo (CTG) assay, CCRF-CEM. The note with it: 72 hr exposure. How it is done: (§1) Cells were grown in RPMI-1640 supplemented with L-Glutamine and 10% FBS of the following cancer cell lines:
(§2) CCRF-CEM; CCRF-CEM-cytarabine resistant; HL-60;
(§3) 18, 96 well plates of each cell line were seeded with the optimized number of cells per well in a total volume of 50 μL per well. The plates were left overnight. Plate wells were seeded with 100 μL media for media control. The following day, cells were exposed to test compounds as described below. At the same time as drug exposure, a CTG assay was conducted on the 18th plate for the 0 hr count.
(§4) The compounds were added to cells and medium already on the plate to give desired final concentrations. 50 μL media were added to cell control wells, and 50 μL of mix added to vehicle control wells. 10 μM Doxorubicin was added to appropriate wells as control. Cells exposed to test compound were incubated at 37° C. for 72 hr followed by a CTG assay.
(§5) At the end of the 72 hr exposure period, plates were removed for a CellTiter-Glo (CTG) assay from a 37° C., 5% CO2 incubator and placed on the bench at room temperature for 30 mins. 100 μL of CellTiter-Glo reagent was added and mixed for 2 mins, followed by a further 10 min incubation at room temperature. Luminescence was recorded using Synergy 4.0.

Assay [2] deals with HL-60. The experiment in a line: In vitro inhibition, CellTiter-Glo (CTG) assay, HL-60. The note with it: HL-60, 72 hr exposure. How it is done: as §1, §2, §3, §4, §5
On the technique in general: ATP-based viability assays read luminescence as a measure of living cells.

Assay [3] relates to CCRF-CEM-cytarabine resistant. The assay can be described thus: In vitro inhibition, CellTiter-Glo (CTG) assay, CCRF-CEM-cytarabine resistant. The note with it: 72 hr exposure. How it is done: as §1, §2, §3, §4, §5

For orientation: pIC50 means the IC50 on a negative log10 scale, so that one unit is a factor of ten.

As for `C[C@H](NP(=O)(OCc1ccc([N+](=O)[O-])s1)OC[C@H]1O[C@@H](n2ccc(N)nc2=O)[C@@H](O)[C@@H]1O)C(=O)OCc1ccccc1` (single isomer, unassigned) [24f (diastereoisomer 1)], the pIC50 is more than 6.00 in assay [1] (Homo sapiens); 4.60 to 5.00 in assay [2] (Homo sapiens, HL-60, 72 h); 4.60 to 5.00 in assay [3] (72 h).

Take `C[C@H](NP(=O)(OCc1ccc([N+](=O)[O-])s1)OC[C@H]1O[C@@H](n2ccc(N)nc2=O)[C@@H](O)[C@@H]1O)C(=O)OCc1ccccc1` (single isomer, unassigned) [24f (diastereoisomer 2)]: the pIC50 is more than 6.00 in assay [1], 4.60 to 5.00 in assay [2] and 4.60 to 5.00 in assay [3].

On to `Nc1ccn([C@@H]2O[C@H](COP(=O)(NCc3ccccc3)OCc3ccc([N+](=O)[O-])o3)[C@@H](O)[C@@H]2O)c(=O)n1` (single isomer, unassigned) [25 (diastereoisomer 1)], for which the pIC50 is more than 6.00 in assay [1] (Homo sapiens); 5.00 to 6.00 in assay [2] (Homo sapiens, HL-60, 72 h); 4.60 to 5.00 in assay [3] (72 h).

With `Nc1ccn([C@@H]2O[C@H](COP(=O)(NCc3ccccc3)OCc3ccc([N+](=O)[O-])o3)[C@@H](O)[C@@H]2O)c(=O)n1` (single isomer, unassigned) [25 (diastereoisomer 2)], the pIC50 is more than 6.00 in assay [1], 5.00 to 6.00 in assay [2] and 4.60 to 5.00 in assay [3].

`C[C@H](NP1(=O)OC[C@H]2O[C@@H](n3cnc4c(N)nc(Cl)nc43)[C@@H](F)[C@@H]2O1)C(=O)OCc1ccccc1` (single isomer, unassigned) [Compound 26a]: the negative-log IC50 (pIC50) in assay [1] (Homo sapiens) is more than 6.00; in assay [2] (Homo sapiens, HL-60, 72 h), more than 6.00; in assay [3] (72 h), 5.00 to 6.00.

Turning to `C[C@H](NP1(=O)OC[C@H]2O[C@@H](n3cnc4c(N)nc(Cl)nc43)[C@@H](F)[C@@H]2O1)C(=O)OCc1ccccc1` (single isomer, unassigned) [Compound 26b], the negative logarithm of the IC50 (pIC50) in assay [1] is more than 6.00; in assay [2] it was more than 6.00; in assay [3] it was 5.00 to 6.00.

Consider `CCOC(=O)[C@H](C)NP1(=O)OC[C@H]2O[C@@H](n3cnc4c(N)nc(Cl)nc43)[C@@H](F)[C@@H]2O1` (stereo partly drawn) [Compound 10, Ethyl (2S)-2-[[(4aR6R,7S,7aR)-6-(6-amino-2-chloro-purin-9-yl)-7-fluoro-2-oxo-4a,6,7,7a-tetrahydro-4H-furo[3.2-d][1,3,2]dioxaphosphinin-2-yl]amino]propanoate], for which the negative-log IC50 (pIC50) in assay [1] (Homo sapiens) is more than 6.00; in assay [2] (Homo sapiens, HL-60, 72 h) it was 5.00 to 6.00; in assay [3] it was 4.00 to 4.60.

Take `CCOC(=O)[C@H](C)NP1(=O)OC[C@H]2O[C@@H](n3cnc4c(N)nc(Cl)nc43)[C@@H](F)[C@@H]2O1` (stereo partly drawn) [Compound 11, Ethyl (2S)-2-[[(4aR6R,7S,7aR)-6-(6-amino-2-chloro-purin-9-yl)-7-fluoro-2-oxo-4a,6,7,7a-tetrahydro-4H-furo[3.2-d][1,3,2]dioxaphosphinin-2-yl]amino]propanoate]: the pIC50 in assay [1] is more than 6.00; in assay [2] it was more than 6.00; in assay [3], 5.00 to 6.00.

Take `Nc1ccn([C@@H]2O[C@H](COP(=O)(OCc3cnc([N+](=O)[O-])s3)OCc3cnc([N+](=O)[O-])s3)[C@@H](O)[C@@H]2O)c(=O)n1` [Compound 24b, [(2R,3S,4S,5R)-5-(4-amino-2-oxo-pyrimidin-1-yl)-3,4-dihydroxy-tetrahydrofuran-2-yl]methyl bis[(2-nitrothiazol-5-yl)methyl]phosphate]: the pIC50 in assay [1] (Homo sapiens) is more than 6.00; in assay [2] (Homo sapiens), more than 6.00; in assay [3], 4.60 to 5.00.

In the case of `Cn1c(COP(=O)(OCc2cnc([N+](=O)[O-])s2)OC[C@H]2O[C@@H](n3ccc(N)nc3=O)[C@@H](O)[C@@H]2O)cnc1[N+](=O)[O-]` (stereo partly drawn) [Compound 24c, [(2R,3S,4S,5R)-5-(4-amino-2-oxo-pyrimidin-1-yl)-3,4-dihydroxy-tetrahydrofuran-2-yl]methyl (3-methyl-2-nitro-imidazol-4-yl)methyl (2-nitrothiazol-5-yl)methyl phosphate], the pIC50 was more than 6.00 in assay [1] (Homo sapiens), more than 6.00 in assay [2] (Homo sapiens) and 4.60 to 5.00 in assay [3].

Turning to `Nc1ccn([C@@H]2O[C@H](COP(=O)(OCc3ccc([N+](=O)[O-])o3)OCc3ccc([N+](=O)[O-])o3)[C@@H](O)[C@@H]2O)c(=O)n1` [Compound 24e, [(2R,3S,4S,5R)-5-(4-amino-2-oxo-pyrimidin-1-yl)-3,4-dihydroxy-tetrahydrofuran-2-yl]methyl bis[(5-nitro-2-furyl)methyl]phosphate], the results for the pIC50 in assay [1] (Homo sapiens), in assay [2] (Homo sapiens) and in assay [3] were more than 6.00, more than 6.00 and 4.60 to 5.00, respectively.
